Activity calls are given as the source filed them. No cut-off for these calls is given here.
Key:
[1] = test system: Hepatocyte; assay: Effect on Acad-1 gene expression in mouse hepatocyte; assay type: functional, cell-based
[2] = Tmax in 16 hrs fasted ICR mouse at 20 mg/kg, po measured upto 8 hrs by LC-MS/MS analysis; assay type: ADME, organism-based; conditions: in vivo
[3] = test system: Hepatocyte; assay: Inhibition of Fasn level in mouse hepatocyte at 10 uM preincubated with compound for 30 mins followed by T0901317 addition and measured after 12 hrs; assay type: functional, cell-based; conditions: time 12.5 hrs
[4] = MRT infinity in 16 hrs fasted ICR mouse at 20 mg/kg, po measured upto 8 hrs by LC-MS/MS analysis; assay type: ADME, organism-based; conditions: in vivo
[5] = test system: HepG2; assay: Downregulation of SREBP-1 level in human HepG2 cells transfected with SIRT6 SiRNA at 10 uM preincubated for 30 mins followed by T0901317 addition and measured after 12 hrs; assay type: functional, cell-based; conditions: time 12.5 hrs
[6] = test system: HepG2; assay: Downregulation of LXR level in human HepG2 cells transfected with SIRT6 SiRNA at 10 uM preincubated for 30 mins followed by T0901317 addition and measured after 12 hrs; assay type: functional, cell-based; conditions: time 12.5 hrs
[7] = test system: Mus musculus; assay: Anti-lipogenic activity against high fat died induced male C57BL/6J mouse obesity model assessed as reduction in lipid droplet formation at 15 mg/kg, po administered three times per week and measured for 5 weeks by H and E staining based analysis; assay type: functional, organism-based
[8] = Terminal half life in 16 hrs fasted ICR mouse at 20 mg/kg, po measured upto 8 hrs by LC-MS/MS analysis; assay type: ADME, organism-based; conditions: in vivo, read-out: beta t1/2 (converted)
[9] = Volume of distribution at steady state in 16 hrs fasted ICR mouse at 2 mg/kg, iv measured upto 8 hrs by LC-MS/MS analysis; assay type: ADME, organism-based; conditions: in vivo, read-out: Vdss
[10] = (§1) Downregulation of SREBP-1c mRNA expression in human HepG2 cells pretreated with compound for 30 mins followed by T0901317 addition and measured after 12 hrs by RT-qPCR analysis; assay type: functional, cell-based
[11] = test system: HepG2; assay: as §1; assay type: functional, cell-based; conditions: dose 0.01-100 µM, time 12.5 hrs
[12] = test system: Hepatocyte; assay: Effect on Ppara gene expression in mouse hepatocyte; assay type: functional, cell-based
[13] = target: CYP2D6 (Homo sapiens, UniProt P10635); assay: Inhibition of CYP2D6 in human liver microsomes at 10 uM using dextromethorphan as substrate preincubated for 5 mins followed by NADPH generating system addition and measured after 15 mins relative to control; assay type: ADME, Microsome; conditions: probe dextromethorphan, time 20 min
[14] = test system: HepG2; assay: Downregulation of ACACA expression in human HepG2 cells at 5 uM pretreated with compound for 30 mins followed by T0901317 addition and measured after 12 hrs in presence of compound C by immunoblot analysis; assay type: functional, cell-based; conditions: time 12.5 hrs
[15] = test system: Mus musculus; assay: Anti-lipogenic activity against high fat died induced male C57BL/6J mouse obesity model assessed as downregulation of Cxcl1 mRNA level at 15 mg/kg, po administered three times per week and measured after 5 weeks by RT-qPCT analysis; assay type: functional, organism-based
[16] = target: T1, Oxysterols receptor LXR-alpha (Homo sapiens) (UniProt Q13133); assay: Inhibition of LXRalpha in human HepG2 cells expressing LXRE at 2.5 to 5 uM preincubated for 30 mins followed by T0901317 addition and measured after 24 hrs by Dual-glo luciferase assay; assay type: cell-based; conditions: dose 2.5-5 µM, time 24.5 hrs
T1 sequence (whole entry): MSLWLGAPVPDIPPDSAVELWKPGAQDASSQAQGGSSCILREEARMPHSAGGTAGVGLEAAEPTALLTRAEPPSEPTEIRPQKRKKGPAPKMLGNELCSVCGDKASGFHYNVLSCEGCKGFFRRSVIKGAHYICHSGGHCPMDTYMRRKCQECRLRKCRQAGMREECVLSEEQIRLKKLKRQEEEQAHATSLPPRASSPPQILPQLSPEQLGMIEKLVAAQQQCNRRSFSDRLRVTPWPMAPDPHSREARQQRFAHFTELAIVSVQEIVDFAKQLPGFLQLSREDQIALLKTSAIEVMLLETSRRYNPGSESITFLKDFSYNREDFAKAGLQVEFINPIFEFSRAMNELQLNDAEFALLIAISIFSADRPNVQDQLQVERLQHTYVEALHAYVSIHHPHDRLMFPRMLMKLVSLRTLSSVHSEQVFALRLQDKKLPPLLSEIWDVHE

[17] = test system: HepG2; assay: Downregulation of ACACA level in human HepG2 cells at 10 uM preincubated for 30 mins followed by OSS128167 addition and measured after 12 hrs; assay type: functional, cell-based; conditions: time 12.5 hrs
[18] = test system: Mus musculus; assay: Anti-lipogenic activity against high fat died induced male C57BL/6J mouse obesity model assessed as reduction ALT level in serum at 15 mg/kg, po administered three times per week and measured for 5 weeks; assay type: functional, organism-based
[19] = test system: Mus musculus; assay: Anti-lipogenic activity against high fat died induced male C57BL/6J mouse obesity model assessed as downregulation of F4/80 mRNA level at 15 mg/kg, po administered three times per week and measured after 5 weeks by RT-qPCT analysis; assay type: functional, organism-based
[20] = test system: HepG2; assay: Downregulation of ACACA mRNA level in human HepG2 cells at 10 uM pretreated with compound for 30 mins followed by […] addition and measured after 12 hrs by RT-qPCR analysis; assay type: functional, cell-based; conditions: time 12.5 hrs
[21] = test system: HepG2; assay: Downregulation of acetylated histone H3K9 level in human HepG2 cells preincubated for 30 mins followed by GW3965 addition and measured after 12 hrs; assay type: functional, cell-based; conditions: dose 5-10 µM, time 12.5 hrs
[22] = Terminal half life in 16 hrs fasted ICR mouse at 2 mg/kg, iv measured upto 8 hrs by LC-MS/MS analysis; assay type: ADME, organism-based; conditions: in vivo, read-out: beta t1/2 (converted)
[23] = test system: AML12; assay: Downregulation of SREBP-1c expression level in mouse AML12 cells at 10 uM pretreated with compound for 30 mins followed by T0901317 addition and measured after 12 hrs by RT-qPCR analysis; assay type: functional, cell-based; conditions: time 12.5 hrs
[24] = test system: HepG2; assay: Downregulation of SREBP-1c expression level in human HepG2 cells at 5 to 10 uM pretreated with compound for 30 mins followed by GW3965 addition and measured after 12 hrs by RT-qPCR analysis; assay type: functional, cell-based; conditions: dose 5-10 µM, time 12.5 hrs
[25] = Oral bioavailability in 16 hrs fasted ICR mouse at 20 mg/kg measured upto 8 hrs by LC-MS/MS analysis; assay type: ADME, organism-based; conditions: in vivo
[26] = MRT infinity in 16 hrs fasted ICR mouse at 2 mg/kg, iv measured upto 8 hrs by LC-MS/MS analysis; assay type: ADME, organism-based; conditions: in vivo
[27] = test system: HepG2; assay: Downregulation of ACACA gene expression in human HepG2 cells in presence of T0901317 by RNA sequencing analysis; assay type: functional, cell-based
[28] = target: NAD-dependent protein deacylase sirtuin-6 (Homo sapiens) (UniProt Q8N6T7); assay: Activation of recombinant SIRT6 (unknown origin) using fluoro-substrate peptide as substrate at 2.5 to 400 uM by fluorescence based analysis; conditions: filed as activator, dose 2.5-400 µM
NAD-dependent protein deacylase sirtuin-6 (Homo sapiens), sequence (Q8N6T7 whole entry): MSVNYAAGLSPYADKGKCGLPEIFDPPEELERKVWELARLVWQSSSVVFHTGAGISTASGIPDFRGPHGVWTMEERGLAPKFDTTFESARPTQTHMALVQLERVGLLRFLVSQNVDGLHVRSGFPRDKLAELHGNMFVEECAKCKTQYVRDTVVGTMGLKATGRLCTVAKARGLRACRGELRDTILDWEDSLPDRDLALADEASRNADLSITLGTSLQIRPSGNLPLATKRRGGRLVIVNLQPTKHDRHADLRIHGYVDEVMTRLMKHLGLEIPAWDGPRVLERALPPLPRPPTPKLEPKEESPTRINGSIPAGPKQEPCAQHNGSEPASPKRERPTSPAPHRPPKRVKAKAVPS

CYP2D6, sequence (P10635 whole entry): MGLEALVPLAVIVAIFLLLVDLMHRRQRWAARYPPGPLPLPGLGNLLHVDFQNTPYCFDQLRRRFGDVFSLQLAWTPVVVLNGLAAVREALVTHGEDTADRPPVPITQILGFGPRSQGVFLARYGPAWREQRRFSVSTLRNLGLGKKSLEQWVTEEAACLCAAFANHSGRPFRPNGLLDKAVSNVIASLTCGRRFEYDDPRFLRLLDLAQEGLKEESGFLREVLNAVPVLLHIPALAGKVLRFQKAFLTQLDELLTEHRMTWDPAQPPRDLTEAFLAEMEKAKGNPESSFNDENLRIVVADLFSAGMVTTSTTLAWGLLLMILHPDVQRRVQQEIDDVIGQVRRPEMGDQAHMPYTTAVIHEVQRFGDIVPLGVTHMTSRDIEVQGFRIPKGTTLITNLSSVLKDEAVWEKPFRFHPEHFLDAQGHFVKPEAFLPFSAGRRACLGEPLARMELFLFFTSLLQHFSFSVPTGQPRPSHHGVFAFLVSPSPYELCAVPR

Question: For `COc1ccccc1Nc1c(N[C@H]2CC[C@H](Oc3ccc([N+](=O)[O-])cc3)CC2)c(=O)c1=O`, which Activity [1] is on record?
Answer: Its Activity is “inactive”.

Question: What about the Tmax [2] of the same compound?
Answer: The Tmax was 18 min.

Question: And the inhibition [3]?
Answer: The inhibition was “Active”.

Question: What about the MRT inf [4] of the same compound?
Answer: Its MRT inf is 1.6 h.

Question: What about the Activity [5] of the same compound?
Answer: Its Activity is “inactive”.

Question: What about the Activity [6] of the same compound?
Answer: Its Activity is “inactive”.

Question: What about the Activity [7] of the same compound?
Answer: Its Activity is “Active”.

Question: What about the half-life [8] of the same compound?
Answer: The half-life was 84 min.

Question: What about the Vd [9] of the same compound?
Answer: Its Vd is 1.1 L/kg.

Question: And the IC50 [10]?
Answer: The IC50 was 2500 nM.

Question: And the Activity [11]?
Answer: Its Activity is “Dose-dependent-effect”.

Question: What about the Activity [12] of the same compound?
Answer: The Activity was “inactive”.

Question: And the inhibition at 0.25 h, 10 µM [13]?
Answer: Its inhibition at 0.25 h, 10 µM is greater than 100%.

Question: What about the Activity [14] of the same compound?
Answer: Its Activity is “inactive”.

Question: What about the Activity [15] of the same compound?
Answer: Its Activity is “Active”.

Question: What about the inhibition [16] of the same compound?
Answer: Its inhibition is “Active”.

Question: What about the Activity [17] of the same compound?
Answer: The Activity was “inactive”.

Question: And the Activity [18]?
Answer: The Activity was “Active”.

Question: What about the Activity [19] of the same compound?
Answer: The Activity was “Active”.

Question: And the Activity [20]?
Answer: The Activity was “Active”.

Question: What about the Activity [21] of the same compound?
Answer: The Activity was “Dose-dependent-effect”.

Question: What about the half-life [22] of the same compound?
Answer: Its half-life is 84 min.

Question: And the Activity [23]?
Answer: Its Activity is “Active”.

Question: And the Activity [24]?
Answer: Its Activity is “Active”.

Question: And the bioavailability [25]?
Answer: The bioavailability was 11.2%.

Question: And the MRT inf [26]?
Answer: Its MRT inf is 1.3 h.

Question: And the Activity [27]?
Answer: Its Activity is “Active”.

Question: And the Activity [28]?
Answer: The Activity was “Active”.

Source: ChEMBL document CHEMBL6120940, “Discovery of N-Aryl-N'-[4-(aryloxy)cyclohexyl]squaramide-Based Inhibitors of LXR/SREBP-1c Signaling Pathway Ameliorating Steatotic Liver Disease: Navigating the Role of SIRT6 Activation” (J Med Chem, 2024)
